The record followed here is patent US9034874B2, “Carbamate/urea derivatives” (NOVARTIS AG, priority 2012, dated 2015).

The structures appear in SMILES notation.

The subject of one assay is tele-methylhistamine. Nature of the assay: Effects on brain tele-methylhistamine levels. Type of assay: in vivo, rat. To be noted: male Sprague-Dawley rats, oral, frontal cortex. As for the experimental part:
Compounds of the invention were dissolved in 20% 2-hydroxyl-beta-cyclodextran (HBC) and then sonicated briefly until there is little or no suspension in the solution. Animals (male Sprague-Dawley rats at the age of 8 weeks) were orally dosed with test compounds I hour or other longer time points before they were sacrificed using CO2.
A cardiac puncture was performed to collect blood sample from the cardiac cavity. The collected blood was immediately mixed with EDTA-K2 20 μl/ml to avoid blood clotting. The blood samples in tubes were then centrifuged (15 mim, 6000 rpm) and the plasma transferred to new tubes and then temporarily kept in dry ice until they were stored in a −70° C. freezer.
CSF collection: CSF samples were taken from the foramen magnum of the animal (using a #0.5 intravenous needle), and the CSF sample were kept in dry ice.
The rat brain were taken out of the skull and rinsed with ice-cold saline first. The frontal cortex was separated from the rest of the brain on top of a petri dish with ice underneath. The wet weight of the frontal cortex was weighed and recorded immediately. The frontal cortex sample was then kept in dry ice until they are transferred to a −70° C. freezer.
Bioanalytical Methods for Tele-Methyl Histamine and Compounds:
• Instrument: Agilent 6410, triple quadrupole mass spectrometer • Matrix: rat plasma, frontal cortex homogenate and cerebrospinal fluid (CSF) • Analyte: H3 compounds. • Internal standard: Dexamethasone HPLC Conditions Mobile Phase A: H2O—0.1% NH3.H2O: • Mobile phase B: MeOH-0.1% NH3.H2O • Column: Ultimate XB-C18 (2.1×50 mm, 5 μm) • Flow rate: 0.45 mL/min, temperature: 40° C. MS Conditions: • ESI: positive ion • MRM detection • Dexamethasone: [M+H]+m/z 393.3→373.2; CE: 4; Fragmentor: 110 Sample Preparation: Frontal Cortex:
the brain sample was homogenized for 2 min with 3 volumes (v/w) of homogenizing solution (EtOH:PBS=85:15), and then centrifuged at 12,000 rpm for 5 min. […]

For a further assay, the system named is wakefulness in rats. In words: Effects on wakefulness (EEG/EMG recordings). The assay is classed as in vivo, rat. To be noted: oral, first 4 hours after administration. How it is done: Animals: Male Sprague-Dawly rats (280-320 g) were housed individually under an ambient temperature of 22±0.5° C. with a relative humidity of 60±2% and an automatically controlled 12-h light/12-h dark cycle (light on at 07:00, illumination intensity 100 lux). The animals had free access to food and water.
EEG recording set up, Polygraphic Recordings and Vigilance State Analysis: Under pentobarbital anesthesia (50 mg/kg, i.p.), rats were chronically implanted with EEG and electromyogram (EMG) electrodes for polysomnographic recordings (Huang et al, J Neurosci, 23, 5975-5983, 2003). Two stainless steel screws (1 mm in diameter) EEG electrodes (the first screw: anteroposterior (AP), +2 mm; left-right (LR), −2 mm; and the second: AP, −2 mm; LR, −2 mm, AP from bregma, LR from lambda) and a reference electrode (opposite to EEG screw side, AP, +3 mm; LR, 3 mm) were surgically implanted and 3 stainless steel screws for anchorage to the skull. Two insulated stainless steel, Teflon-coated wires were bilaterally placed into both trapezius muscles and served as EMG electrodes for rats. All electrodes were attached to a micro connector and fixed to the skull with dental cement. […]
For the study of spontaneous sleep-wakefulness cycles, each animal was recorded for 24 h beginning at 19:00 P.M., the offset of the light period. The animals then entered the pharmacological phase of the study, in which sleep-wakefulness parameters were recorded for 72 h. […]
Cortical EEG and EMG signals were amplified, filtered (EEG, 0.5-30 Hz; EMG, 20-200 Hz), digitized at a sampling rate of 128 Hz, and recorded by using SLEEPSIGN (Kissei Comtec, Nagano, Japan). When complete, polygraphic recordings were automatically scored offline by 4-sec epochs as wake, REM, and NREM sleep by SleepSign according to standard criteria (Huang et al, Nat Neurosci, 8, 858-859, 2005). […]
Time-course changes in the amounts of sleep-wake, sleep/wake stage transition number, as well as number and duration of sleep/wake bouts in light/dark phases, were analyzed by the paired t test, with each animal serving as its own control. […]

`CC(C)N1CCN(C(=O)OC2CCN(c3ccc(=O)[nH]n3)CC2)CC1` [Example 1.3, 1-(6-oxo-1,6-dihydropyridazin-3-yl)piperidin-4-yl 4-isopropylpiperazine-1-carboxylate]: in the assay with tele-methylhistamine, the “% change in tele-methylhistamine brain levels for 10 mg/kg @ 1 h” value (from here on “% change”) came out at 115%. The “% increase in wakefulness at 10 mg” value in the assay with wakefulness in rats was 19.1%.
Regarding `O=C(OC1CCN(c2ccc(=O)[nH]n2)CC1)N1CCN(C2CCC2)CC1` [Example 1.1, 1-(6-oxo-1,6-dihydropyridazin-3-yl)piperidin-4-yl 4-cyclobutylpiperazine-1-carboxylate], the “% change” value in the assay with tele-methylhistamine was 72%. In addition, the “% increase in wakefulness at 10 mg” value with wakefulness in rats is on record as 42.1%.
With `CC(C)N1CCN(C(=O)OC2CCN(c3ccc(=O)n(C)n3)CC2)CC1` [Example 1.2, 1-(1-methyl-6-oxo-1,6-dihydropyridazin-3-yl)piperidin-4-yl 4-isopropylpiperazine-1-carboxylate], the “% change” value with tele-methylhistamine is given as 138%. In the assay on wakefulness in rats, the “% increase in wakefulness at 10 mg” value was found to be 48.8%.
